Tests used:
Assay in all cases: 3' UTR reporter interaction score (median-centred robust z-score of log2 firefly/Renilla activity); higher = less repression of the 3' UTR reporter
Details in all cases: HEK293T; 48 h
MYT1L = test system: MYT1L
Outline: (§1)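 HEK293T cells (10,000/well, 96-well plates) were co-transfected using DharmaFECT Duo with 100 ng firefly luc2P reporter carrying the gene's 3' UTR, 20 ng Renilla pRL-TK control and 2.5 pmol miRNA mimic. Dual-luciferase activities were read 48 h post-transfection. The interaction score is the log-transformed firefly/Renilla ratio as a per-plate robust z-score (median, median absolute deviation), median-centred per miRNA and averaged over at least two independent screens; more negative indicates interaction.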

MYCN = test system: MYCN
Outline: as §1

BRCA2 = test system: BRCA2
Outline: as §1

PHOX2B = test system: PHOX2B
Outline: as §1

RB1 = test system: RB1
Outline: as §1

EZH2 = test system: EZH2
Outline: as §1

HRAS = test system: HRAS
Outline: as §1

FBXW7 = test system: FBXW7
Outline: as §1

MYB = test system: MYB
Outline: as §1

TP53 = test system: TP53
Outline: as §1

MYC = test system: MYC
Outline: as §1

NOTCH1 = test system: NOTCH1
Outline: as §1

ZEB2 = test system: ZEB2
Outline: as §1

PHF6 = test system: PHF6
Outline: as §1

| Sequence | 3' UTR reporter interaction score (MYT1L) | 3' UTR reporter interaction score (MYCN) | 3' UTR reporter interaction score (BRCA2) | 3' UTR reporter interaction score (PHOX2B) | 3' UTR reporter interaction score (RB1) | 3' UTR reporter interaction score (EZH2) | 3' UTR reporter interaction score (HRAS) | 3' UTR reporter interaction score (FBXW7) | 3' UTR reporter interaction score (MYB) | 3' UTR reporter interaction score (TP53) | 3' UTR reporter interaction score (MYC) | 3' UTR reporter interaction score (NOTCH1) | 3' UTR reporter interaction score (ZEB2) | 3' UTR reporter interaction score (PHF6) |
| --- | --- | --- | --- | --- | --- | --- | --- | --- | --- | --- | --- | --- | --- | --- |
| UAUGUGCCUUUGGACUACAUCG | -1.09 | 0 | -1.13 | -3.33 | 0.319 | -0.568 | -0.0556 | 0.444 | 0.663 | -0.404 | 0.403 | 0.00167 | 0.0793 | 0.707 |
| UAUGUGGGAUGGUAAACCGCUU | -2.09 | 0.212 | -0.81 | -0.0868 | 0.217 | 0.226 | -0.809 | 1.55 | 1.45 | -0.352 | 0.022 | 0.24 | 2.77 | -0.864 |
| UAUUGCACUCGUCCCGGCCUC | -1.11 | 1.3 | 0.27 | 1.55 | 0.116 | -0.851 | -0.467 | -2.89 | 0.69 | -0.261 | 0.586 | -1.13 | -1.97 | 0.726 |
| UAUUGCACUUGUCCCGGCCUG | -1.81 | 1.23 | 1.75 | 0.517 | 1.41 | -0.214 | 0.114 | -2.99 | -1.54 | 0.235 | 0.754 | -0.177 | -2.03 | 0.0608 |
| UAUUGCUUAAGAAUACGCGUAG | 0.685 | 0.474 | 0.543 | -0.259 | 0.636 | 0.837 | 0.147 | -1.25 | -0.789 | -0.087 | -0.116 | -0.139 | 0.0907 | -1.32 |
| UCAAAUGCUCAGACUCCUGU | -0.983 | 1.14 | -3.48 | 0.0556 | 1.29 | 0.251 | 0.546 | 0.918 | -3.31 | -0.221 | -0.559 | -0.149 | -1 | 0.837 |
| UCAAGAGCAAUAACGAAAAAUGU | -2.38 | -0.782 | 0.701 | -0.662 | -2.16 | -0.0128 | -0.0915 | 0.698 | -0.127 | 0.338 | -0.189 | 0.351 | 0.703 | 0.162 |
| UCACAAUGCUGACACUCAAACUGCUGAC | 0.647 | -0.126 | -3.53 | 0.242 | -0.143 | 0.195 | -0.335 | 0.257 | -0.419 | -0.424 | 0.447 | -0.0831 | -1.11 | 0.399 |
| UCACAGUGAACCGGUCUCUUUC | 0.655 | 0.302 | 0.111 | 0.244 | -0.537 | 0.78 | -0.688 | -1.67 | -1.23 | 0.241 | 0.45 | -0.749 | -2.39 | -3.58 |
| UCACAGUGAACCGGUCUCUUUU | -2.56 | 1.36 | -0.31 | -1.31 | 1.15 | 0.47 | -2.6 | -1.07 | 0.662 | 0.412 | -0.0365 | -0.144 | -4.74 | 1.79 |
| UCAGAACAAAUGCCGGUUCCCAGA | -0.318 | 0.0784 | -0.146 | -0.368 | -0.316 | 0.61 | 1.03 | 0.465 | 0.483 | -1.5 | 0.178 | -0.509 | 0.0144 | 0.882 |
| UCAGGCUCAGUCCCCUCCCGAU | -0.304 | -0.567 | 0.841 | 0.106 | 0.0824 | 0.0569 | -0.122 | 0.573 | -1.88 | 0.0121 | 0.0353 | -0.181 | 1.33 | 0.0613 |
| UCAGUCUCAUCUGCAAAGAAG | -1.02 | 1.11 | -0.924 | 0.237 | 0.581 | 1.71 | 1.08 | 0.372 | -0.485 | -0.202 | 0.794 | -1.13 | -0.368 | -0.895 |
| UCAGUGCACUACAGAACUUUGU | 1.34 | 0.963 | -1.23 | -0.0276 | 1.18 | -0.364 | -0.763 | 0.473 | -1.33 | -0.523 | 0.0974 | 0.169 | 1.75 | 0.792 |
| UCAGUGCAUCACAGAACUUUGU | 1.61 | 0.974 | -1.11 | -0.909 | 1.28 | -0.211 | -0.998 | 0.15 | -1.04 | -0.15 | 0.216 | 0.0134 | 1.9 | 0.428 |
| UCAGUGCAUGACAGAACUUGGG | 0.827 | 0.0157 | -0.0322 | -1.31 | -2.16 | 0.0466 | -1.05 | 0.501 | -1.5 | -0.341 | 0.213 | 0.274 | 1.1 | 1.76 |
| UCCAGCAUCAGUGAUUUUGUUGA | -0.429 | -0.105 | 0.64 | 1.43 | -0.243 | 0.0592 | -0.335 | -0.0681 | 0.387 | -0.53 | -0.461 | -0.191 | 0.915 | 0.0153 |
| UCCAGCUCCUAUAUGAUGCCUUU | -1.49 | -0.396 | 0.152 | -0.208 | -0.767 | 0.255 | -0.216 | 0.91 | 0.963 | 0.0762 | 0.624 | -1.09 | -2.75 | -0.704 |
| UCCAGUACCACGUGUCAGGGCCA | 0.747 | -3.01 | 0.581 | 0.294 | 0.837 | -1.44 | 0.159 | -1.35 | 0.593 | -0.171 | -0.893 | 0.223 | 0.742 | -0.805 |

Source: the supplement of paper PMC5844555
